pIC50: −log10 of the molar value.

IC50, selectivity ratio and activity data for twelve compounds are collected here from ChEMBL document CHEMBL4371069, “Click chemistry for improvement in selectivity of quinazoline-based kinase inhibitors for mutant epidermal growth factor receptors” (Bioorg Med Chem Lett, 2019).

Data set [1] addresses Receptor tyrosine-protein kinase erbB-2 (Homo sapiens, UniProt P04626). The data set is described as follows: Inhibition of human C-terminal His6-tagged ERBB2 (676 to end residues) expressed in baculovirus infected sf21 cells using poly(Glu, Tyr) 4:1 as substrate.
In data set [2] the target is Epidermal growth factor receptor (Homo sapiens, UniProt P00533, L858R/T790M). The data set is described as follows: biochemical. It is filed as cell-based, Sf21.
In data set [3] the target is Epidermal growth factor receptor (Homo sapiens, UniProt P00533). It is filed as ADME, cell-based, Sf21.
Description: Inhibition of human N-terminal GST-tagged EGFR kinase domain (696 to end residues) expressed in baculovirus infected sf21 cells using poly(Glu, Tyr) 4:1 as substrate
In a further data set the test system is PC-9. The experiment in a line: Antiproliferative activity against human PC9 cells harboring EGFR exon-19 del mutant after 72 hrs by EZ-Cytox assay. The class given is functional, cell-based. To be noted: PC-9, 72 h.
The subject of another data set is NCI-H1975. The data set is described as follows: Antiproliferative activity against human NCI-H1975 cells harboring EGFR T790M/L858R double mutant after 72 hrs by EZ-Cytox assay. It is filed as functional, cell-based. To be noted: NCI-H1975, 72 h.
For the next data set, the system named is A549. The experiment in a line: Antiproliferative activity against human A549 cells harboring wild-type EGFR after 72 hrs by EZ-Cytox assay. To be noted: A549, 72 h. The class given is ADME, cell-based.
A further data set deals with SK-BR-3. The experiment in a line: Antiproliferative activity against HER2-dependant human SKBR3 cells after 72 hrs by EZ-Cytox assay. To be noted: SK-BR-3, 72 h. The class given is ADME, cell-based.
Data set [4] is described as follows: Safety index, ratio of compound IC50 to afatinib IC50 for antiproliferative activity against HER2-dependant human SKBR3 cells. The class given is cell-based. To be noted: SK-BR-3 cells (HER2-dependent), read-out: Ratio IC50.
The subject of another data set is HepG2. The data set is described as follows: Cytotoxicity against human HepG2 cells after 24 hrs by LDH release assay. It is filed as cell-based. To be noted: HepG2, 24 h. On the technique in general: LDH leaks from cells whose membrane has failed.
A further data set deals with T1, CYP2B6 (Homo sapiens, UniProt P20813).
T1 sequence (P20813 whole entry): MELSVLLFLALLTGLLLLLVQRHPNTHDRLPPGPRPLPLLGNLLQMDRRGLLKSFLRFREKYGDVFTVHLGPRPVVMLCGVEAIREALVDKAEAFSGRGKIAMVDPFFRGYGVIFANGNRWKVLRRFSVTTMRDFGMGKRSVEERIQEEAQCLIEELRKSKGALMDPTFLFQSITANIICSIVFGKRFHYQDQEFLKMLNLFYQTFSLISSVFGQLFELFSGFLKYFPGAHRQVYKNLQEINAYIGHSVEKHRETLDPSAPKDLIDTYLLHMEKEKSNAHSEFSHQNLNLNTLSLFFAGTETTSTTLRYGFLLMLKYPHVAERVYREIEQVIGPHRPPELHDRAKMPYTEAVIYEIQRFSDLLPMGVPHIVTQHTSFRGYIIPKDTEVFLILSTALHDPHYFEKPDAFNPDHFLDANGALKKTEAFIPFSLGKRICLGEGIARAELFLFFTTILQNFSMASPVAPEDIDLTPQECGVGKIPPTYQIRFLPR
The experiment in a line: Inhibition of CYP2B6 in human liver microsomes assessed as residual activity at 10 uM using bupropion as substrate preincubated for 5 mins followed by NADPH addition and measured after 15 mins by LC-MS/MS analysis relative to control. The class given is ADME. To be noted: probe bupropion, read-out: Activity. On the technique in general: Liver microsomes are vesicles of endoplasmic reticulum, rich in cytochrome P450 enzymes.

In a further data set the target is CYP3A4 (Homo sapiens, UniProt P08684). The experiment in a line: Inhibition of CYP3A4 in human liver microsomes assessed as residual activity at 10 uM using midazolam as substrate preincubated for 5 mins followed by NADPH addition and measured after 15 mins by LC-MS/MS analysis relative to control. The class given is ADME. To be noted: probe midazolam, read-out: Activity.

Another data set has as its target T2, CYP2A6 (Homo sapiens, UniProt P11509).
T2 sequence (P11509 whole entry): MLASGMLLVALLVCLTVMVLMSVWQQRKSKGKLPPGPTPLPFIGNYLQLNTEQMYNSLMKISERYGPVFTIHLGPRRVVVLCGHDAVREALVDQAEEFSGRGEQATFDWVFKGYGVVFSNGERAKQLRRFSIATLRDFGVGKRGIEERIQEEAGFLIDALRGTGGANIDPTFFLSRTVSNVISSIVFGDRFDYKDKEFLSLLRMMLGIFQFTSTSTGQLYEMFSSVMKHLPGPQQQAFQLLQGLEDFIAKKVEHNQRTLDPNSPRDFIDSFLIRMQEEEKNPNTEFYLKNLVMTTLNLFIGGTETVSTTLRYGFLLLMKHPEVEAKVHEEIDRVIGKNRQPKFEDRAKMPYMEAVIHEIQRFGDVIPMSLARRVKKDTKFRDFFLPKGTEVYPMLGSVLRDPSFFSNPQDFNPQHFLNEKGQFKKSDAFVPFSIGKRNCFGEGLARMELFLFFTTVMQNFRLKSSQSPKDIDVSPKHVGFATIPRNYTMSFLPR
The data set is described as follows: Inhibition of CYP2A6 in human liver microsomes assessed as residual activity at 10 uM using coumarin as substrate preincubated for 5 mins followed by NADPH addition and measured after 15 mins by LC-MS/MS analysis relative to control. To be noted: probe coumarin, read-out: Activity. The class given is ADME.

A further data set has as its target CYP2C9 (Homo sapiens, UniProt P11712). The data set is described as follows: Inhibition of CYP2C9 in human liver microsomes assessed as residual activity at 10 uM using tolbutamide as substrate preincubated for 5 mins followed by NADPH addition and measured after 15 mins by LC-MS/MS analysis relative to control. It is filed as ADME. To be noted: probe tolbutamide, read-out: Activity.

Another data set has as its target T3, CYP1A2 (Homo sapiens, UniProt P05177).
T3 sequence (P05177 whole entry): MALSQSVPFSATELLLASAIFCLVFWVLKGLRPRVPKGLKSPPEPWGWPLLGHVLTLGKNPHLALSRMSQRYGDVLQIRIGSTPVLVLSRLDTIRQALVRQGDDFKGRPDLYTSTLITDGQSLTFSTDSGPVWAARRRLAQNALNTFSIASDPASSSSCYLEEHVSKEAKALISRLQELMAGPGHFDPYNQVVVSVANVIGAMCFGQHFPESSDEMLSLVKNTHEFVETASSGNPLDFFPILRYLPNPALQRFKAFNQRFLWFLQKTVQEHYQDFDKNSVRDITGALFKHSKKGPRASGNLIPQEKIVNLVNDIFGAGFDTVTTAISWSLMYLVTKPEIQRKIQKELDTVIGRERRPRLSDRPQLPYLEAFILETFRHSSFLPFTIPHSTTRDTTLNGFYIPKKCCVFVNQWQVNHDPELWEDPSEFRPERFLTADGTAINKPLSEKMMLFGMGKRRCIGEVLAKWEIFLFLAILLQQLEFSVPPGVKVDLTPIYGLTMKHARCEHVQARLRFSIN
The experiment in a line: Inhibition of CYP1A2 in human liver microsomes assessed as residual activity at 10 uM using phenacetin as substrate preincubated for 5 mins followed by NADPH addition and measured after 15 mins by LC-MS/MS analysis relative to control. The class given is ADME. To be noted: probe phenacetin, read-out: Activity.

The target in a further data set is CYP2C19 (Homo sapiens, UniProt P33261). The experiment in a line: Inhibition of CYP2C19 in human liver microsomes assessed as residual activity at 10 uM using S-mephenytoin as substrate preincubated for 5 mins followed by NADPH addition and measured after 15 mins by LC-MS/MS analysis relative to control. It is filed as ADME. To be noted: probe S-mephenytoin, read-out: Activity.

The target of a further data set is CYP2E1 (Homo sapiens, UniProt P05181). The data set is described as follows: Inhibition of CYP2E1 in human liver microsomes assessed as residual activity at 10 uM using chlorzoxazone as substrate preincubated for 5 mins followed by NADPH addition and measured after 15 mins by LC-MS/MS analysis relative to control. The class given is ADME. To be noted: probe chlorzoxazone, read-out: Activity.

The next data set has as its target T4, CYP2C8 (Homo sapiens, UniProt P10632).
T4 sequence (P10632 whole entry): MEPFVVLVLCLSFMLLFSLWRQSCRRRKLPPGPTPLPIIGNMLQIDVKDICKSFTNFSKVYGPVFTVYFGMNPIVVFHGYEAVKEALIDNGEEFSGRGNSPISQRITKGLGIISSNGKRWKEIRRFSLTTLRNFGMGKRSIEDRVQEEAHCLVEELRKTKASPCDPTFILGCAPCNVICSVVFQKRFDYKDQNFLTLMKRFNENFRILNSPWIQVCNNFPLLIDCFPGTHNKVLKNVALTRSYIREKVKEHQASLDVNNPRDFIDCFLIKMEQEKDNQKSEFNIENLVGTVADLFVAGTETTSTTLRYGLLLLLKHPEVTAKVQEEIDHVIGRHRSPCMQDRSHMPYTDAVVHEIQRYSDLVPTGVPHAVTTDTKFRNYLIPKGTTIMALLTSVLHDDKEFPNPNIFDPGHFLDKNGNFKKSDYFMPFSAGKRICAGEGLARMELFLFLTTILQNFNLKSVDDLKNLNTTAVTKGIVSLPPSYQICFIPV
The data set is described as follows: Inhibition of CYP2C8 in human liver microsomes assessed as residual activity at 10 uM using amiodiaquine as substrate preincubated for 5 mins followed by NADPH addition and measured after 15 mins by LC-MS/MS analysis relative to control. The class given is ADME. To be noted: probe amiodiaquine, read-out: Activity.

Chain of Epidermal growth factor receptor (Homo sapiens, UniProt P00533) (P00533 whole entry): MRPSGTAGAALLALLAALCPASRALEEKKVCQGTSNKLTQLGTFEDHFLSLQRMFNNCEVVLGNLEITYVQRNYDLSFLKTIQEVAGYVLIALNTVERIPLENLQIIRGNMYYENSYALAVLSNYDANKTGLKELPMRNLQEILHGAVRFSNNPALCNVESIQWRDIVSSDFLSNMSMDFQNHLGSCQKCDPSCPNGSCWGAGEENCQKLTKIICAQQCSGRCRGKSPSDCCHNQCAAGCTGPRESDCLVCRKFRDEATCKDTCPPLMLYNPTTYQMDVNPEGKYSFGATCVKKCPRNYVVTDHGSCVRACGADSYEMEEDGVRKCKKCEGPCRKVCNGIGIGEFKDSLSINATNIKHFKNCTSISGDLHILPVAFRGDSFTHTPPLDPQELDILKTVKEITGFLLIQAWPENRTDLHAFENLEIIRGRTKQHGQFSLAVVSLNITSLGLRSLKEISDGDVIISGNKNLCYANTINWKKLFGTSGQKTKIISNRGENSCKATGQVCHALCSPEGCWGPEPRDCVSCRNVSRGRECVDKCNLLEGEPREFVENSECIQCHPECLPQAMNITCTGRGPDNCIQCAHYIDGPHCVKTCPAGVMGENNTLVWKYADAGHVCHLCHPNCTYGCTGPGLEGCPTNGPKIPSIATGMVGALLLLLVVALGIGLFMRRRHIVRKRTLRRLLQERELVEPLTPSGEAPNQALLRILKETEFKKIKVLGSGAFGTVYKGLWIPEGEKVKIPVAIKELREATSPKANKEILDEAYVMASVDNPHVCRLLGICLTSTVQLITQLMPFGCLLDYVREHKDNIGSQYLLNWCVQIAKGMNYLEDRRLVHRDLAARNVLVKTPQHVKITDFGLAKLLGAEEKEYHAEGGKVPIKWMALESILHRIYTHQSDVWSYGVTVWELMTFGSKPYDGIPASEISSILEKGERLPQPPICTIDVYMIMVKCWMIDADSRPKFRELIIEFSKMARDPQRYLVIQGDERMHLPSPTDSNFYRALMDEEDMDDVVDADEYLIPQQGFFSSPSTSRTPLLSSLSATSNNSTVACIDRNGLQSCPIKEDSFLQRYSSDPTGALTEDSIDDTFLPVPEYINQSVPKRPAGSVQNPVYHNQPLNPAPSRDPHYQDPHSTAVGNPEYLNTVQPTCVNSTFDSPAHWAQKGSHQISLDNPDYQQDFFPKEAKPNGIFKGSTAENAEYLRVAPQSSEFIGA
Chain of Receptor tyrosine-protein kinase erbB-2 (P04626 whole entry): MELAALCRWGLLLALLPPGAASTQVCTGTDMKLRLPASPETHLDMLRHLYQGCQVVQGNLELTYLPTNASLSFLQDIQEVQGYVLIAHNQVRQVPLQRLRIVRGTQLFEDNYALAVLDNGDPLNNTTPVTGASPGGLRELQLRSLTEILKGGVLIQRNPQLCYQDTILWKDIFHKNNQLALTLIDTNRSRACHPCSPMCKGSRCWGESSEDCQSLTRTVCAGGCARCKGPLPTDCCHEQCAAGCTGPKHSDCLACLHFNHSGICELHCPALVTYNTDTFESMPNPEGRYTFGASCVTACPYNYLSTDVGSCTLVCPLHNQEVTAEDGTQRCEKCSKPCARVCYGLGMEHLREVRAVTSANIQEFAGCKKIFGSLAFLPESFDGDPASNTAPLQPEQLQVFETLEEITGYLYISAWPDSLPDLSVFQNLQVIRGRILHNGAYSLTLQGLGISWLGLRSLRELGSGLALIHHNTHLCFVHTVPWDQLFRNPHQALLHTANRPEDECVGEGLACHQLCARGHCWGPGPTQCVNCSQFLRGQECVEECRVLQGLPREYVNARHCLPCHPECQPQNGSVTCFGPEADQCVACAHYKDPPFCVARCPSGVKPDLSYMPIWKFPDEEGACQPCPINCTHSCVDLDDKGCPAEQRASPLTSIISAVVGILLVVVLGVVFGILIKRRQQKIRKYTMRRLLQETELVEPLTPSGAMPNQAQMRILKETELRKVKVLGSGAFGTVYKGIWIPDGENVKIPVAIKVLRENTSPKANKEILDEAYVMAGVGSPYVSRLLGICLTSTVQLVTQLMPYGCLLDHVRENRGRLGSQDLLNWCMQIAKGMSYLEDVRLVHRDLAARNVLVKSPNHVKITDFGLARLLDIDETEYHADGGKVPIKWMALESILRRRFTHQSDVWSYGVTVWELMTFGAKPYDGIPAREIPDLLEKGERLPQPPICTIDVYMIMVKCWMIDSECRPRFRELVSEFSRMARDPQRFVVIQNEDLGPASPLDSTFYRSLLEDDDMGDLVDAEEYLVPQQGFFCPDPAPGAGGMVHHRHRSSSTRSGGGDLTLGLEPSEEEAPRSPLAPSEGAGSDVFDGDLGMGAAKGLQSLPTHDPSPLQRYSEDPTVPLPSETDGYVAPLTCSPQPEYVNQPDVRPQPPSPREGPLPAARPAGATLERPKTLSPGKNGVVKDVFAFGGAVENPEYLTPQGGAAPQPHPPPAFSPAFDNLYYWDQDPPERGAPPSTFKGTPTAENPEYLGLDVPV
Chain of Epidermal growth factor receptor (Homo sapiens, UniProt P00533, L858R/T790M) (P00533 25-1210 T790M/L858R limits assumed): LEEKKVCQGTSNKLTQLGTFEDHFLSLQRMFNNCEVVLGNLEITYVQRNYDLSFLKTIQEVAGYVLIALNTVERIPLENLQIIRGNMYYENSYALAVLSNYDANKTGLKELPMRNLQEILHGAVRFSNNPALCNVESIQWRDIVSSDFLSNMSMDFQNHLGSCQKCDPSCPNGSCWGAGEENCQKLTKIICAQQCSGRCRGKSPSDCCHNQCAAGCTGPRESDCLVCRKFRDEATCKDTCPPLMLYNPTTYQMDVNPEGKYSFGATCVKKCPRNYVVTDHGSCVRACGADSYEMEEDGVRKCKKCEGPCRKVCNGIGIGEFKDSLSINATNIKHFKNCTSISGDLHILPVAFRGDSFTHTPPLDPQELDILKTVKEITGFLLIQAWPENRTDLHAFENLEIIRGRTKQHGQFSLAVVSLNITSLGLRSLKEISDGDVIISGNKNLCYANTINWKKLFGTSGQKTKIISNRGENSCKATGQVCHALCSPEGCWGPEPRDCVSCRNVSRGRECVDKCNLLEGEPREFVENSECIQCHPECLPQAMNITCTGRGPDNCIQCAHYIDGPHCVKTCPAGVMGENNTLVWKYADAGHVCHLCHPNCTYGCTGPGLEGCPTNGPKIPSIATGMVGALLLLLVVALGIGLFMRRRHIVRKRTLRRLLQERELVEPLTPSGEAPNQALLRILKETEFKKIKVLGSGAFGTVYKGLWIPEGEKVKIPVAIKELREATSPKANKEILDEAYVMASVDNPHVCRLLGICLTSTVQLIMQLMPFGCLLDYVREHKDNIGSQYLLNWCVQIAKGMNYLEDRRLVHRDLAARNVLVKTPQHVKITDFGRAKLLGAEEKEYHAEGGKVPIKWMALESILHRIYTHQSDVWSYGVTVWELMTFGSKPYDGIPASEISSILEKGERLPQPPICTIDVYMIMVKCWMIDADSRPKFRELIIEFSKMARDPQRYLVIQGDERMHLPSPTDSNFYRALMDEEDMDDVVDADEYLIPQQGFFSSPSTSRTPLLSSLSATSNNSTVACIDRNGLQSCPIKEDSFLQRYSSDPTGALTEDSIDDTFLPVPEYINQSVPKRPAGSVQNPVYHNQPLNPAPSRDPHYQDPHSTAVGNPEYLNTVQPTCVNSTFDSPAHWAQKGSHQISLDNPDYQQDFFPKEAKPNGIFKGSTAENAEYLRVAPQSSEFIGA
Chain of CYP2C19 (P33261 whole entry): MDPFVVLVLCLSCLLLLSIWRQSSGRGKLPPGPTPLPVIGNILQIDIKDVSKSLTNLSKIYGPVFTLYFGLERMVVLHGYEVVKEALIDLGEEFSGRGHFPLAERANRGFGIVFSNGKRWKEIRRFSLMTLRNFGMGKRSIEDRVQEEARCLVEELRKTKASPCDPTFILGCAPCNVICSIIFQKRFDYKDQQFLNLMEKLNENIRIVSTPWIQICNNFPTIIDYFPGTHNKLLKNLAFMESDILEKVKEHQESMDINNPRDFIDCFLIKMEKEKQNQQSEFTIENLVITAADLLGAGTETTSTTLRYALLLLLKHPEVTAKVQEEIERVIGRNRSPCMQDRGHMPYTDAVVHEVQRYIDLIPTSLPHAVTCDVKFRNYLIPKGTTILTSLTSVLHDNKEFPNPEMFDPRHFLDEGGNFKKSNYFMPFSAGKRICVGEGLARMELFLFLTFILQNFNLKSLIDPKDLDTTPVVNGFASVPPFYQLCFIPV
Chain of CYP2E1 (P05181 whole entry): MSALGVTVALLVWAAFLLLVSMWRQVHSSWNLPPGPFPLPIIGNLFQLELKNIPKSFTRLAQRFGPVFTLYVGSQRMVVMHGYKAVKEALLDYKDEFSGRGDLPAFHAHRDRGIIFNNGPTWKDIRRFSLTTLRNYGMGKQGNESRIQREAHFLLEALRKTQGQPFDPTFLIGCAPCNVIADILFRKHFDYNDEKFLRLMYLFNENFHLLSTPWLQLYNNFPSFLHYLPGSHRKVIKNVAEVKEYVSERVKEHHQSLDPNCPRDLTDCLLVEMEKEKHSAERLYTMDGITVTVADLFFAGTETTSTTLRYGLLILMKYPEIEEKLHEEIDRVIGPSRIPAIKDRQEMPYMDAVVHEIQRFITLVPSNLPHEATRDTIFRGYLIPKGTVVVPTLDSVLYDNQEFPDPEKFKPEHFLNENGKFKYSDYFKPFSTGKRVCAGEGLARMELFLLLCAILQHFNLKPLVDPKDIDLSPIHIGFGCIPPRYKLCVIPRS

For the compound `C=CC(=O)Nc1cc2c(Nc3ccc(F)c(Cl)c3)ncnc2cc1OCc1cn(Cc2ccccc2)nn1`, the pIC50 (usually the negative decadic logarithm of the IC50, by convention in mol/L) in data set [1] was 7.05; in [2], 8.10; in data set [3], 7.41; in the data set with PC-9 it was 8.92; in the data set with NCI-H1975, 6.09.

Regarding `C=CC(=O)Nc1cc2c(Nc3ccc(F)c(Cl)c3)ncnc2cc1OCc1cn(Cc2ccc(C)cc2)nn1`, the negative logarithm of the IC50 (pIC50) in data set [1] was 6.80; with A549 it was 6.13; in data set [2], 7.82; in [3] it was 6.98; with PC-9, 8.89; with NCI-H1975, 6.38. In addition, the pIC50 in the data set on SK-BR-3 was 6.67. In addition, the selectivity ratio in data set [4] is more than 95.

In turn, `COC(=O)C1=C(C)NC(C)=C(C(=O)OC)C1c1ccccc1[N+](=O)[O-]` [NIFEDIPINE] had a pIC50 in the data set on HepG2 of 5.03.

`C=CC(=O)Nc1cc2c(Nc3ccc(F)c(Cl)c3)ncnc2cc1OCc1cn(-c2ccccc2)nn1`: the pIC50 in [1] is 6.33; in data set [2], 7.59; in data set [3], 7.13; in the data set on PC-9 it was 7.49; in the data set with NCI-H1975, 5.32.

As to `CN(C)C/C=C/C(=O)Nc1cc2c(Nc3ccc(F)c(Cl)c3)ncnc2cc1O[C@H]1CCOC1` [AFATINIB], the pIC50 was 5.42 in the data set with A549, 10.00 with PC-9, 6.88 with NCI-H1975 and 8.92 in the data set on SK-BR-3.

Regarding `C#CCOc1cc2ncnc(Nc3ccc(F)c(Cl)c3)c2cc1NC(=O)C=C`, the pIC50 in the data set with A549 was less than 5.00; in the data set on PC-9, 8.54; in the data set with NCI-H1975, 5.80; with SK-BR-3 it was 6.97.

With `C=CC(=O)Nc1cc2c(Nc3ccc(F)c(Cl)c3)ncnc2cc1OCc1cn(CCCO)nn1`, the pIC50 in [1] is 7.17; in data set [2], 8.40; in [3], 7.92; in the data set on PC-9, 8.82; in the data set with NCI-H1975 it was 5.86.

For the compound `C=CC(=O)Nc1cc2c(Nc3ccc(F)c(Cl)c3)ncnc2cc1OCc1cn(CCCN2CCOCC2)nn1`, the pIC50 in data set [1] was 7.27; in the data set on A549, 5.09; in data set [2], 8.40; in [3], 7.92; with PC-9, 9.22; in the data set on NCI-H1975, 6.47. In the data set with SK-BR-3, this compound gave a pIC50 of 7.72.

Regarding `C=CC(=O)Nc1cc2c(Nc3ccc(F)c(Cl)c3)ncnc2cc1OCc1cn(Cc2ccccc2F)nn1`, the pIC50 in data set [1] was 7.11; in data set [2], 7.92; in data set [3], 7.19; with PC-9 it was 8.92; in the data set with NCI-H1975, 6.21.

Take `CC(=O)N1CCN(c2ccc(OCC3COC(Cn4ccnc4)(c4ccc(Cl)cc4Cl)O3)cc2)CC1` (configuration not stated) [KETOCONAZOLE]: the activity at 0.25 h, 10 µM on CYP2B6 turned out to be 84.1%; on CYP3A4 it was 35.7%; on CYP2A6, 91.8%; at CYP2C9, 85%; on CYP1A2, 92.5%; at CYP2C19 it was 85.8%. Moreover, the values for the activity at 0.25 h, 10 µM at CYP2E1 and at CYP2C8 were 98.1% and 95.6%, respectively.

On to `C=CC(=O)Nc1cc2c(Nc3ccc(F)c(Cl)c3)ncnc2cc1OCc1cn(Cc2ccc(OC)cc2)nn1`, for which the negative-log IC50 (pIC50) was 6.67 in data set [1]; 8.30 in data set [2]; 7.39 in data set [3]; 8.96 in the data set with PC-9; 6.15 with NCI-H1975.

Turning to `C=CC(=O)Nc1cc2c(Nc3ccc(F)c(Cl)c3)ncnc2cc1OCc1cn(CCc2ccccc2)nn1`, the pIC50 is 6.35 in data set [1]; 7.92 in data set [2]; 7.39 in [3]; 8.44 with PC-9; 5.68 in the data set with NCI-H1975.
